Assay results from patent US4859664A, “Derivatives of 2,3,4,5,6,7-hexahydro-2,7-methano-1,5-benzoxazonines and -1,4-benzoxazonines, processes for their production and their use as pharmaceuticals” (priority 1986, dated 1989).
Where a name gives a salt, the structure may show the parent alone. Read-outs that look alike come from different tables or passages of the source.

Assays:
[1] = type: in vivo, male NMRI mice
Procedure: (§1) […]. They were given a standard feed and water ad libitum up to the commencement of the experiments.
(§2) The test compounds were administered in a volume of 10 ml./kg./body weight per mouse. As carrier, there was used physiological sodium chloride solution or a suspension of 0.5% tragacanth in physiological sodium chloride solution.
(§3) The experimental results are given as average values with a mean error of the average value (x±S.E.M.). The ED50 values were calculated according to Litchfield and Wilcoxon (J. Pharmacol. Exp. Ther., 96, 99/1949). The compounds were thereby tested in 4 dosages (p≤0.5).
(§4) For the significance calculation, there was used Student's t test (see Angewandte Statistik, pub. Stringer Verlag, Berlin, Heidelberg, 242/1983), as well as the range sum test of Mann and Withney (Ann. Math. stat., 50, 1818/1947).
(§5) 1.1. In the acetic acid writhing test (see R. Koster et al., Fed. proc., 18, 412/1954), the typical stretching movements referred to as "writhing", were produced by the intraperitoneal administration of a 0.6% acetic acid solution. 30 minutes previously, the substance to be tested was administered subcutaneously (s.c.) or orally ([…].) to the animals. 3 minutes after administration of the acetic acid solution, the total number of stretching movements in a period of time of 10 minutes was ascertained. From the decrease of the stretching reactions due to the action of the test compound in comparison with non-pretreated control groups, there was determined the percentage inhibition action.

[2] = influencing of hexobarbital narcosis; type: in vivo, male NMRI mice
Procedure: as §1, §2, §3
4. Influencing of hexobarbital narcosis.
The test compounds were administered subcutaneously to 5 animals per dosage group. After 30 minutes, 100 mg./kg. hexobarbital sodium was administered intraperitoneally. 2 to 3 minutes after this injection, the animals allowed themselves to be laid on their backs. For each animal, there was measured the time in minutes from the commencement of the back position up to the time when the animals themselves twice successively again assumed the abdominal position.

[3] = influencing of the amphetamine group toxicity; type: in vivo, male NMRI mice; conditions: amphetamine control group, 15 mg. s.c.
Procedure: as §1, §2
3. Influencing of the amphetamine group toxicity.
There was investigated the influence of the test compounds on the mortality of amphetamine-treated, aggregated mice. The dosaging of d-amphetamine was 15 mg./kg., which should permit the recognition not only of a synergism but also of an antagonism towards a sympathomimetic compound. Carrying out the experiment:
30 minutes after the subcutaneous administration of the test substance, the animals received subcutaneously 15 mg./kg. of d-amphetamine sulphate. The number of dead animals was recorded after 2, 4 and 7 hours. For the maintenance of the group size, the dead animals were replaced by untreated animals (6 animals/dosage group).

[4] = testing for ataxia (rotating rod test); type: in vivo, male NMRI mice
Procedure: (§6) For the pharmacological investigations described in the following, there were used male NMRI mice with a weight of from 15 to 30 g. The animals were kept under usual laboratory conditions, randomised and subjected to a light-dark change with a 12 hour rhythm. They were given a standard feed and water ad libitum up to the commencement of the experiments.
as §2
There was used the rotating rod test (see F. Gross et al., Schweiz. Med. Wschr., 85, 305/1955).
5 animals per dosage group were trained to keep themselves on a horizontally rotating rod made of synthetic resin (16 rpm). 40, 80 and 120 minutes after the subcutaneous administration of the test compounds, the animals were again tested. From the number of animals which fell off prematurely, there was determined the disturbance of the movement coordination.

[5] = tonus reduction on striated musculature; type: in vivo, male NMRI mice; conditions: 5 mg./kg. s.c.
Procedure: as §6, §2
6. Tonus reduction on striated musculature.
The test used is described by J. P. Chambon et al. (Arzneimittelforschung (Drug Research), 35 (II), (10), 1572/1985).
5 animals per dosage group were placed with their front paws on a horizontal metal rod (diameter 3 mm., length 20 cm.) which was fixed 30 cm. above a laboratory bench. Mice with normal muscle tonus climbed within 5 seconds on to the rod with at least one rear paw.
40, 80 and 120 minutes after the subcutaneous administration of the test compound, the animals were again tested for this ability and the number of incapable animals was recorded.

[6] = type: in vivo, male NMRI mice; remark: listed apart in the source
Procedure: as §1, §2
2. Development of dependency.
Withdrawal jumps of the mouse (see J. K. Saelens et al., Arch. Int. Pharmacodyn. Ther., 190, 213/1971).
Mice which were dependent upon morphine or other opiates react, when treated with morphine antagonists, with a flight reaction (see F. Huidobro and C. Maggiolo, Arch. Int. Pharmacodyn. Ther., 158, 97/1965); E. L. Way et al., Science, 162, 1290/1968). This flight reaction manifests itself in very vigorous jumping reactions which continue for about 10 minutes. From the number of reacting animals and especially from the jump frequency per animal, there can be deduced the strength of the withdrawal symptoms and thus the degree of dependency upon the test compound. Carrying out of the test:
The test and standard compounds were administered subcutaneously according to the scheme shown in the following Table III in increasing dosages over the course of 2 days.
For the provocation of the withdrawal jumps, the animals received intraperitoneally, 2 hours after the last compound administration, 30 mg./kg. naloxone hydrochloride.
Immediately after the administration of the naloxone, the animals were placed individually in a 5 liter glass beaker. Subsequently, the number of jump movements was recorded during the course of 10 minutes. For evaluation, the number of animals reacting the withdrawal jumps, as well as the average number of jumps per animal, was used.
The animals of the naloxone control group were, up to the administration of naloxone, treated with a 0.9% aqueous solution of sodium chloride (6 animals/dosage group).

[7] = type: in vivo, male NMRI mice; conditions: given without sign
Procedure: They were given a standard feed and water ad libitum up to the commencement of the experiments.
as §2, §3, §4, §5
Naloxone-antagonistic action in the writhing test.
20 Minutes before the subcutaneous administration of the test compounds, the animals were given 20 mg./kg. naloxone hydrochloride subcutaneously. The further carrying out of the experiments was as described above.

SMILES: CC1CCCC2C3CNCCC12Oc1ccccc13 (stereo not drawn) [Example 12, B/C-trans-1,2,3,4,4a,9a-hexahydro-4-methyl-4a,9-(3-azabutano)-xanthene]
- inhibiting action in writhing test ([1]; 25 mg./kg. s.c.): 24%
- inhibiting action in writhing test ([1]; 50 mg./kg. s.c.): 79%

SMILES: CC(N)Cc1ccccc1.O=S(=O)(O)O (stereo not shown) [amphetamine sulphate, reference compound]
- change with regard to hexabarbital sodium ([2]; 1.0 mg/kg sc): -43.2 min
- period of narcosis ± SEM ([2]; 1.0 mg/kg sc, hexobarbital sodium 100 mg./kg. i.p.): 49.2 ± 14.6 min

SMILES: CC(N)Cc1ccccc1 (stereo not shown) [amphetamine, reference compound]
- % of deceased animals after 2 hrs. [3]: 0%
- % of deceased animals after 4 hrs. [3]: 33%
- % of deceased animals after 7 hrs. [3]: 0%
- % of deceased animals, total [3]: 33.3%

SMILES: COc1ccc2c3c1O[C@H]1[C@@H](O)C=C[C@H]4[C@@H](C2)N(C)CC[C@@]341 [codeine phosphate, reference compound]
- change with regard to hexabarbital sodium ([2]; 50 mg/kg sc): +51.2 min.
- period of narcosis ± SEM ([2]; 50 mg/kg sc, hexobarbital sodium 100 mg./kg. i.p.): 143.6 ± 10.5 min

SMILES: CN1C(=O)CN=C(c2ccccc2)c2cc(Cl)ccc21 [diazepam, reference compound]
- change of the maintenance time in % compared with the control group, after 40 min. ([4]; 5 mg/kg s.c.): -87%
- change of the maintenance time in % compared with the control group, after 80 min. ([4]; 5 mg/kg s.c.): -73%
- change of the maintenance time in % compared with the control group, after 120 min. ([4]; 5 mg/kg s.c.): -22%
- relaxing action [5]: 93%

SMILES: CN1C(=O)NC(=O)C(C)(C2=CCCCC2)C1=O (stereo not shown) [hexobarbital, reference compound]
- period of narcosis ± SEM ([2]; hexobarbital alone, 100 mg/kg ip): 92.4 ± 17.1 min

SMILES: CN1CC[C@]23c4c5ccc(O)c4O[C@H]2[C@@H](O)C=C[C@H]3[C@H]1C5.Cl [morphine HCl, reference compound]
- % of reacting animals ([6]; mouse, in vivo): 100%

SMILES: CCC1(c2ccccc2)C(=O)NC(=O)NC1=O [phenobarbital, reference compound]
- change of the maintenance time in % compared with the control group, after 40 min. ([4]; 30 mg/kg s.c.): -29%
- change of the maintenance time in % compared with the control group, after 80 min. ([4]; 30 mg/kg s.c.): -21%
- change of the maintenance time in % compared with the control group, after 120 min. ([4]; 30 mg/kg s.c.): -37%
- change of the maintenance time in % compared with the control group, after 40 min. ([4]; 50 mg/kg s.c.): -54%
- change of the maintenance time in % compared with the control group, after 80 min. ([4]; 50 mg/kg s.c.): -46%
- change of the maintenance time in % compared with the control group, after 120 min. ([4]; 50 mg/kg s.c.): -42%

SMILES: COc1cccc(C2(O)CCCCC2CN(C)C)c1 (stereo not shown) [tramadol HCl, reference compound]
- % of reacting animals ([6]; s.c. increasing dosages over 2 days, naloxone i.p., 10 minutes): 83.3%

SMILES: COc1cccc(C2(O)CCCCC2CN(C)C)c1 (stereo not shown) [tramadol, 2-[(dimethylamino)-methyl]-1-(3-methoxyphenyl)-cyclohexanol, reference compound]
- change in % (with vs without naloxone) ([7]; 10 mg/kg s.c.): 39.0%
- change in % (with vs without naloxone) ([7]; 20 mg/kg s.c.): 30.7%
